Results as given in US20130171224A1, “TREATMENT OF BIOFILMS” (priority 2010, published 2013).
Values joined by “and” are separate entries in the source; they are usually repeats but may differ in a detail not shown here. Equal values may be shown once.

What was measured:
Type in all cases: cell-based
[1] = tested on: Candida albicans ATCC10231 biofilm; experiment: Combinational effects between ionic silver and polyphosphate (FIC) on NUNC biofilms; design: MIC in combination (A) / MIC in combination (B): unit not given beside the values; details: 72 hour C. albicans biofilm
Method: (§1) The bacteria used in this study were Staphylococcus aureus ATCC6538, Candida albicans ATCC10231 and Pseudomonas aeruginosa ATCC9027. Pure cultures were maintained on nutrient agar at 37° C. The NUNC-TSP transferable solid phase screening system (NUNC, Roskilde, Denmark) was used to generate up to 96 reproducible biofilms in a microtitre plate. Briefly, a suspension of each bacteria was prepared in 0.9% saline solution and adjusted to a McFarland's standard no. 1.0. This bacterial suspension was then diluted 1:30 in sterile TSB and 150 μl aliquots aseptically transferred to a 96 well Calgary device. […] Biofilms were generated as described previously. […] Sigma-Aldrich, Germany) was prepared in water (40 mg/ml) and filter sterilised (0.22 μm). Concentrations of polyphosphate were prepared horizontally across the NUNC 96 well plate, whilst ionic silver was prepared vertically. […] This permitted a diverse array of drug concentration combinations to be tested in a single investigation.

[2] = tested on: Pseudomonas aeruginosa ATCC9027 biofilm; experiment: as above; design: MIC in combination (A) / MIC in combination (B): unit not given beside the values; details: for MIC alone mg/ml (B): agent B alone; for MIC in combination (B): agent B in combination with A; for MIC alone mg/ml (A): agent A alone; for MIC in combination (A): agent A in combination with B
Method: as §1

[3] = tested on: Staphylococcus aureus ATCC6538 biofilm; experiment: as above; design: MIC in combination (A) / MIC in combination (B): unit not given beside the values; details: 24 hour S. aureus biofilm
Method: as §1

[4] = tested on: Pseudomonas aeruginosa ATCC9027 biofilm; experiment: Challenge of NUNC-TSP biofilms to polyphosphate (MIC, MBC, MBEC)
Method: (§2) The bacteria used in this study were Staphylococcus aureus ATCC6538, Candida albicans ATCC10231 and Pseudomonas aeruginosa ATCC9027. Pure cultures were maintained on nutrient agar at 37° C. The NUNC-TSP transferable solid phase screening system (NUNC, Roskilde, Denmark) was used to generate up to 96 reproducible biofilms in a microtitre plate. Briefly, a suspension of each bacteria was prepared in 0.9% saline solution and adjusted to a McFarland's standard no. 1.0. This bacterial suspension was then diluted 1:30 in sterile TSB and 150 μl aliquots aseptically transferred to a 96 well Calgary device. Plates were incubated for 24 and 72 hours and then submerged in 150 μl 0.9% saline solution to remove planktonic bacteria from the biofilm surface. A stock solution of polyphosphate (80 mg/ml) was prepared in distilled water and filter sterilised (0.22 μm). This was subsequently diluted 1:2 in triplicate across the wells in TSB to a final concentration of 0.04 mg/ml. Each well also consisted of positive controls (TSB only in absence of antimicrobial agent) and negative controls. NUNC solid phase lids were subsequently transferred to this challenge plate and incubated overnight (37° C.). Wells were visually inspected for turbidity signifying bacterial growth. The minimum inhibitory concentration was defined as the lowest concentration of polyphosphate to prevent bacterial growth. Aliquots of wells (10 μl) showing no visual signs of turbidity were transferred to fresh TSB stocks and incubated for a further 8 hours (37° C.). This allowed the determination of the minimum bactericidal concentration (MBC). Subsequent to this, challenged NUNC peg lids were transferred to a 96 well recovery plate containing TSB media only. Plates were incubated overnight and visualised for bacterial growth. This allowed the determination of the minimum biofilm eradication concentration (MBEC). Any growth in the media corresponded to planktonic bacteria seeding the media from a viable biofilm. Absence of turbidity therefore signified bacterial eradication at this respective concentration of polyphosphate.

[5] = tested on: Staphylococcus aureus ATCC6538 biofilm; experiment: as above
Method: as §2

[6] = 24 hour monospecies P. aeruginosa biofilm
[7] = 24 hour monospecies S. aureus biofilm

## O=[N+]([O-])[O-].[Ag+] [silver nitrate, reference compound]
[1]
  FIC (B): 0.428
[1]; agent B alone
  MIC alone mg/ml (B): 0.07 mg/mL
[1]; agent B in combination with A
  MIC in combination (B): 0.03
[2]; 24 hour P. aeruginosa biofilm
  FIC (B): 0.0625
  MIC alone mg/ml (B): 10 mg/mL
  MIC in combination (B): 0.625
[2]; 72 hour P. aeruginosa biofilm
  FIC (B): 0.1
  MIC alone mg/ml (B): 0.6 mg/mL
  MIC in combination (B): 0.07
[3]
  FIC (B): 1
[3]; agent B alone
  MIC alone mg/ml (B): 0.015 mg/mL
[3]; agent B in combination with A
  MIC in combination (B): 0.015

## polyphosphate
[4]; [6]
  MBC: >80 mg/mL
  MBEC: >80 mg/mL
  MIC: 5 mg/mL and 5.0 mg/mL
[4]; 72 hour P. aeruginosa biofilm
  MIC: 80 mg/mL
[5]; [7]
  MBC: 10 mg/mL
  MBEC: 40 to 80 mg/mL
  MIC: 1.25 mg/mL
[5]; 72 hour S. aureus biofilm
  MIC: 20 mg/mL
[1]
  FIC (A): 0.006
[1]; agent A alone
  MIC alone mg/ml (A): 5 mg/mL
[1]; agent A in combination with B
  MIC in combination (A): 0.03
[2]; 24 hour P. aeruginosa biofilm
  FIC (A): 0.125
  MIC alone mg/ml (A): 5 mg/mL
  MIC in combination (A): 0.625
[2]; 72 hour P. aeruginosa biofilm
  FIC (A): 0.5
  MIC alone mg/ml (A): 80 mg/mL
  MIC in combination (A): 40
[3]
  FIC (A): 0.012
[3]; agent A alone
  MIC alone mg/ml (A): 1.25 mg/mL
[3]; agent A in combination with B
  MIC in combination (A): 0.015
